Entries after “also recorded” stand apart in the source; their conditions may differ. Like-named read-outs stand apart in the source and are kept apart here.

Data set [1] deals with Jurkat cells. Briefly: WST-1 cell cytotoxicity assay in Jurkat cells. The class given is cell-based. The following applies: WST-1, 48 h. Here is the method: (§1) The WST-1 cytotoxicity assay evaluated cytotoxicity in effector cells (Jurkat cells) (Fig. 2A) and target cells (HEK293 cells) (Fig. 2B). The OD value that resulted from WST-1 reagent dye formation strongly correlated with the number of metabolically live cells. To further characterize cytotoxicity tolerance, CC50 (cytotoxic concentration 50%) values were calculated and are shown in Table 1. […] Doses of compounds in the screening assay were based on the CC50 values of each cell line. Thus, screening concentrations of CH-1, -2, -3, -4 and -6 were 0, 10, 20 and 40 µM, respectively, while the concentrations for CH-5 were 0, 0.1, 1 and 10 µM, respectively. To ensure reliable screening, anti-PD-1 neutralizing antibody (Cat No. 71120) was used as a positive control for inhibiting the interaction of PD-1/PD-L1, while HEK293 cells transfected with control plasmid served as the negative control. These groups were treated with increasing concentrations of anti-PD-1 neutralizing antibody (0, 0.1, 1 and 10 µg/mL) and luminescence intensity was determined after treatments.
(§2) Figure 2 In vitro screening of leading compounds. (A) Jurkat cells and (B) HEK293 cells were treated with six leading compounds to test cytotoxicity. Cells were seeded into 96-well plates at a density of 7 × 10^3/well and incubated overnight. The cells were then treated for 48 h with different concentrations (0, 10, 20, 40, and 80 µM) of the six CH compounds. At 48 h, cell cytotoxicity WST-1 assays were performed. The x-axis indicates treatment concentrations, while the y-axis indicates the percentage of cell viability (each absolute absorbance value [abs. 450 nm–630 nm] was normalized with the controls). (C) The capacity of the CH compounds to inhibit the PD-1/PD-L1 interaction was tested using the bioluminescent cell-based assay. Effector cells (growth-arrested reporter Jurkat cells) were preincubated with anti-PD-1 neutralizing antibody (Cat No. 71120), DMSO, or each of the CH compounds. The activity of luciferase was determined as an indicator of cell activation. The graphs present mean ± SD (standard deviation) values from at least three independent experiments. (D) After overnight incubation, KG-1 cells were treated for 48 h with increasing concentrations of the CH compounds (0, 10, 20, 40, or 80 µM). (E) KG-1 cells were incubated with CH compounds prior to sPD-L1-Atto staining. Flow cytometry determined binding of the Ni–NTA-labeled sPD-L1 (PD-L1-Atto) complex to KG-1 cells expressing PD-1. Cell staining (Atto-subset) was blocked in the presence of the CH compounds. The experimental groups are indicated as (a) KG-1/PBS, (b) KG-1/Atto dye, (c) KG-1/sPD-L1/Atto dye, (d) KG-1/sPD-L1/Atto dye/CH-1, (e) KG-1/sPD-L1/Atto dye/CH-2, (f) KG-1/sPD-L1/Atto dye/CH-3, (g) KG-1/sPD-L1/Atto dye/CH-4, (h) KG-1/sPD-L1/Atto dye/CH-5, (i) KG-1/sPD-L1/Atto dye/CH6. (F) The cell staining data from (E) are normalized and quantified as relative MFI values. (G) At 48 h, PD-1 protein (20 µg/well) expression was determined by Western blotting. The bar graphs present the mean ± SD (standard deviation) values from three independent experiments. *p < 0.05, **p < 0.01, ***p < 0.001. TEXT PRINTED IN THE PICTURE: (E) d.: 33.1 % | (E) e.: 38.1 % | (E) f.: 52.9 % | (E) g.: 4.01 % | (E) h.: 38.35 % | (E) i.: 49.35 % DOUBTS OF THE COPYIST ABOUT THIS PICTURE: Panel E: the picture labels the histograms only with the sub-panel letters a.-i.; it prints no compound name or measure beside the percentages, so the letters are used as labels. / Panel E: sub-panels a. (3.52 %), b. (4.59 %) and c. (53.9 %) were left out because they appear to be controls without a test compound. / Panel E, small print: d. 33.1 % (3 or 8), e. 38.1 % (8 or 3), f. 52.9 % (9 or 8), h. 38.35 % (3, 5 and 8 uncertain) and i. 49.35 % (9, 3 and 5 uncertain) are best readings.
(§3) Figure 3 In vitro inhibition by the CH-4 analog of the PD-1/PD-L1 interaction. […]

Data set [2] relates to KG-1 cells. Briefly: WST-1 cell cytotoxicity assay in KG-1 cells. The class given is cell-based. The following applies: 10 µM, 48 h. As for the experimental part: as §2
Using the WST-1 assay, CH compound cytotoxicities were quantified at different concentrations in KG-1 cells (Fig. 2D). […] The data indicated an appropriate concentration for testing inhibition of the PD-1/sPD-L1 interaction by flow cytometry. To clarify the inhibitory qualities of CH compounds in sPD-L1/PD-1 interactions, His-tagged sPD-L1 recombinant protein was labeled with Ni–NTA-conjugated fluorescent dye (Atto) and flow cytometry analysis was performed (Fig. 2E). […] When KG-1 cells were treated with increasing concentrations of CH-4, PD-1 expression was unchanged (Fig. 2G).
The WST-1 assay assessed cell cytotoxicity. Briefly, cells were seeded in 96-well plates at a density of […] (100 μL/well) with 10% FBS in the medium and incubated for 48 h, before undergoing a further 1 h of incubation at 37 °C with 10 μL of WST-1 solution added to each well. Cell viability was quantified by colormetric detection using an ELISA plate reader (Beckman Coulter PARADIGM Detection Platform; Beckman Coulter, IL, USA) at absorbance values of 450 nm and 690 nm to generate an optical density proportional to the relative abundance of live cells in the wells.

Data set [3] has as its system HEK293 cells. Briefly: WST-1 cell cytotoxicity assay in HEK293 cells. Type of data set: cell-based. The following applies: WST-1, 48 h. As for the experimental part:
as §1, §2, §3

For data set [4], the target named is T1, PD-1/PD-L1 interaction (Homo sapiens, UniProt Q15116).
T1 construct: expressed in transfected cells
Briefly: Cell-based PD-1/PD-L1 checkpoint assay (bioluminescent NFAT-luciferase, Jurkat effector cells / PD-L1/TCR HEK293 target cells). The following applies: CH compounds 0, 10, 20, 40 µM; CH-4 effect at 10 µM. The text has this: Protein docking analysis identified six potential SMIs targeting PD-1: CH-1, CH-2, CH-3, CH-4, CH-5, and CH-6. To evaluate their capacity to inhibit the PD-1/PD-L1 interaction, we used a cell-based PD-1/PD-L1 inhibitor screening approach consisting of a bioluminescent cell-based assay containing two main components; genetically manipulated effector cells (growth-arrested reporter Jurkat cells) and engineered PD-L1/TCR-overexpressed HEK293 cells (target cells). In this assay, PD-1-expressed effector cells were genetically manipulated with the nuclear factor of activated T-cells (NFAT)-associated luciferase reporter gene. We used HEK293 cells for transient overexpression of PD-L1 and an engineered TCR activator as target cells. When the two cells were co-cultivated, the PD-1/PD-L1 interaction prevented TCR activation and suppressed NFAT-induced luciferase activity.
The WST-1 cytotoxicity assay evaluated cytotoxicity in effector cells (Jurkat cells) (Fig. 2A) and target cells (HEK293 cells) (Fig. 2B). The OD value that resulted from WST-1 reagent dye formation strongly correlated with the number of metabolically live cells. […] These groups were treated with increasing concentrations of anti-PD-1 neutralizing antibody (0, 0.1, 1 and 10 µg/mL) and luminescence intensity was determined after treatments. […]

A short description of data set [5]: WST-1 cell cytotoxicity assay in Jurkat cells. The following applies: human, Jurkat cells, WST-1, 48 h. Type of data set: cell-based. As for the experimental part: as §1, §2, §3
(Tetrazolium dyes change colour on reduction, which living cells bring about.)

The subject of data set [6] is PD-1 protein. Briefly: Western blotting of PD-1 protein expression in KG-1 cells. The following applies: increasing concentrations, 48 h. Type of data set: cell-based. As for the experimental part: (§4) Figure 2 In vitro screening of leading compounds. (A) Jurkat cells and (B) HEK293 cells were treated with six leading compounds to test cytotoxicity. Cells were seeded into 96-well plates at a density of 7 × 10^3/well and incubated overnight. The cells were then treated for 48 h with different concentrations (0, 10, 20, 40, and 80 µM) of the six CH compounds. At 48 h, cell cytotoxicity WST-1 assays were performed. The x-axis indicates treatment concentrations, while the y-axis indicates the percentage of cell viability (each absolute absorbance value [abs. 450 nm–630 nm] was normalized with the controls). […] The activity of luciferase was determined as an indicator of cell activation. […] Flow cytometry determined binding of the Ni–NTA-labeled sPD-L1 (PD-L1-Atto) complex to KG-1 cells expressing PD-1. […] (F) The cell staining data from (E) are normalized and quantified as relative MFI values. (G) At 48 h, PD-1 protein (20 µg/well) expression was determined by Western blotting. […] 49.35 % (9, 3 and 5 uncertain) are best readings.
Figure 3 In vitro inhibition by the CH-4 analog of the PD-1/PD-L1 interaction. […] The x-axis indicates treatment concentrations, while the y-axis indicates the percentage of cell viability (each absolute absorbance value [abs. 450 nm–630 nm] was normalized with the controls). […]

Data set [7] has as its target T2, PD-1/sPD-L1 interaction (Homo sapiens, UniProt Q15116).
T2 construct: endogenous in cells; host or cells: KG-1 cells (ATCC)
Briefly: Flow cytometry of sPD-L1-Atto binding to KG-1 cells expressing PD-1. Type of data set: cell-based. The following applies: Ni-NTA-labeled sPD-L1. Here is the method:
as §4, with “controls). (C) The capacity of the CH compounds to inhibit the PD-1/PD-L1 interaction was tested using the bioluminescent cell-based assay.” for “controls).”
Using the WST-1 assay, CH compound cytotoxicities were quantified at different concentrations in KG-1 cells (Fig. 2D). […]
Background: A flow cytometer gives signals particle by particle.

Data set [8] in a line: WST-1 cell cytotoxicity assay in HEK293 cells. The class given is cell-based. The following applies: human, HEK293 cells, WST-1, 48 h. Here is the method: as §1, §2, §3
Setting [9] is: mean ± SD, Table 1, read-out: CC50 Jurkat cells.
The mark [10] stands for this setting: read-out: CC50 Jurkat cells (tolerance).
Setting [11] is: mean ± SD, Table 1, read-out: CC50 293 cells.
Setting [12] is: read-out: CC50 HEK293 cells (tolerance).

T2 sequence (Q15116 25-288): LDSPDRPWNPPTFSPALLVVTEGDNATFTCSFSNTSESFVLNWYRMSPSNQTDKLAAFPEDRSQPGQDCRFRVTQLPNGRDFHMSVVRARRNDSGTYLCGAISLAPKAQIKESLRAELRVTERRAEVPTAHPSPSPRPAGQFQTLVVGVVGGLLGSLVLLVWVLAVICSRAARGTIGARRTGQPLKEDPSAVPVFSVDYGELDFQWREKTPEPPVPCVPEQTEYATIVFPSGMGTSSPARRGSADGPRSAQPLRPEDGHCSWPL
T1 sequence (Q15116 25-288): as above

By CC50 is commonly meant the concentration that lowers cell viability or growth by half. `Cc1ccccc1NC(=O)C(=O)CC(=O)c1sc(Nc2ccccc2[N+](=O)[O-])nc1C` [CH-1]: the 50% cytotoxic concentration (CC50) in data set [1] (setting [9]) is 133 ± 5.1 µM; in data set [1] (setting [10]), above 20 µM; in data set [3] (setting [11]) it was 46.9 ± 10.2 µM; in data set [3] (setting [12]) it was above 20 µM. Moreover, the “cytotoxicity to KG-1 cells” value in data set [2] is “low cytotoxicity”.
In the case of `COc1c(C(=O)Nc2ccc(C3=NCCN3)cc2)cccc1C(=O)Nc1ccc(C2=NCCN2)cc1` [CH-2], the half-maximal cytotoxic concentration (CC50) in data set [1] (setting [9]) was 94.9 ± 1.97 µM; in data set [1] (setting [10]), above 20 µM; in data set [3] (setting [11]), 151 ± 32.5 µM; in data set [3] (setting [12]) it was above 20 µM. Besides, the “cytotoxicity to KG-1 cells” value in data set [2] was “low cytotoxicity”.
For `COc1cc(-c2ccc(NC(=O)CSC(N)=O)c(OC)c2)ccc1NC(=O)CSC(N)=O` [CH-3], the CC50 in data set [1] (setting [9]) was 212 ± 46.5 µM; in data set [1] (setting [10]), above 20 µM; in data set [3] (setting [11]), 78.1 ± 4.95 µM; in data set [3] (setting [12]) it was above 20 µM. The “cytotoxicity to KG-1 cells” value in data set [2] is reported as “low cytotoxicity”.
As for `O=C(Nc1ccccc1)c1cc2ccccc2oc1=O` [CH-4.9], in data set [4], the “inhibitory capacity for the PD-1/PD-L1 interaction (luciferase activity)” value is given as “failed to inhibit”. For the same molecule, the “cytotoxicity in Jurkat cells” value in data set [1] (up to 100 µM, Fig. 3A) is listed as “neither analog showed any evidence of cytotoxicity”. In data set [3] (Fig. 3A), the “concentration associated with increasing cytotoxicity in HEK293 cells” value is “exceeding 20 µM”.
For the molecule `COc1ccc(N=Nc2ccc3oc(=O)c(C(=O)Nc4ccc(OC)cc4)cc3c2)cc1` [CH-4], the “inhibitory capacity for the PD-1/PD-L1 interaction (luciferase activity)” value in data set [4] is recorded as “potential inhibitory capacity”. Besides, the 50% cytotoxic concentration (CC50) at 48 h is 30.3 ± 1.3 µM in data set [5] (setting [9]), above 20 µM in data set [5] (setting [10]), 18.9 ± 1.53 µM in data set [8] (setting [11]) and above 20 µM in data set [8] (setting [12]). Moreover, the PD-1 protein expression entry in data set [6] is “unchanged”. For the same molecule, in data set [2], the “cytotoxicity to KG-1 cells” value is listed as “low cytotoxicity”. Besides, the “inhibition of sPD-L1 binding to KG-1 cells (shift in staining/fluorescence intensity)” value in data set [7] is on record as “slight, yet significant, shift in staining intensity; also recorded: significantly decreased the shift in fluorescence intensity”.
Turning to `O=c1c(/C=C/c2c(O)ccc3ccccc23)nnc2sc(-c3cccc([N+](=O)[O-])c3)nn12` [CH-5], the CC50 in data set [1] (setting [9]) was found to be 10.6 ± 2.67 µM; in data set [3] (setting [11]) it was 8.52 ± 1.74 µM. Further, in data set [2], the “cytotoxicity to KG-1 cells” value was “sensitized”.
With `C/C(=N\NC(=O)CCSCCC(=O)N/N=C(\C)c1ccccc1)c1ccccc1` [CH-6], the CC50 in data set [1] (setting [9]) is 103.4 ± 0.94 µM; in data set [1] (setting [10]), above 20 µM; in data set [3] (setting [11]) it was 113 ± 26.1 µM; in data set [3] (setting [12]) it was above 20 µM. For the same molecule, in data set [2], the “cytotoxicity to KG-1 cells” value is reported as “low cytotoxicity”.

The record behind these values is paper PMC8741796, “In vitro characterization of a small molecule PD-1 inhibitor that targets the PD-l/PD-L1 interaction” (Scientific Reports, 2022).
